Reference: patent US20060171912A1, “Diiodomethyl-p-tolylsulfone as a particulate dispersion in a liquid solvent” (priority 2005, published 2006)
Where two headings read alike, the source gives them in different places.

Experiments:
[1] = cited from earlier work
[2] = system: Malassezia furfur (ATCC 14521); assay: Minimum Inhibitory Concentration (MIC) agar dilution test; format: cell-based; details: for MIC: M. furfur, mDixon agar, 30°, 4-5 days; for Retained Activity: dispersed particle form (in water) vs. dissolved in an effective solvent (DMSO)
Procedure: ^1The Minimum Inhibitory Concentration is indicative of anti-fungal efficacy. Generally, the lower the value of the composition, the better its anti-fungal efficacy, due to increased inherent ability of the anti-dandruff agent to inhibit the growth of microorganisms.
Malassezia furfur was grown in a flask containing mDixon medium (see E. Gueho, et al. Antoinie Leeuwenhoek (1996), no. 69, 337-55, which description is incorporated by reference herein). Dilutions of solubilized anti-microbial active were then added to test tubes containing molten mDixon agar. M. furfur inoculum was added to each tube of molten agar, the tube vortexed, and the contents poured into separate sterile petri dishes. […] The lowest tested dilution of anti-microbial active that yields no growth is defined as the Minimal Inhibitory Concentration (MIC).
Experimental Procedure • 1) Malassezia furfur was grown in a 125 ml Erlenmeyer flask containing 50 ml “mDIXON” medium at 200 rpm and 30° C. until turbid. • 2) Selected dilutions were prepared using an appropriate dilution series, of the anti-microbial active or combination in solvent, which allowed the sample active to be solubilized prior to addition to the final test agar. For each concentration of the ZPT samples, the solvent was “DMSO”; for other samples, the solvent was water or “DMSO” or other suitable solvent. • 3) 0.25 ml dilutions of anti-microbial active were added to test tubes containing 9.5 ml molten “mDIXON” agar (held at 45° C. in a water bath). • 4) 0.25 M. furfur inoculum (adjusted to 5×10^5 cfu/ml by direct count) was added to each test tube of molten agar. • 5) Each tube was vortexed, and the contents poured into separate petri dishes. • 6) After the agar solidified, the plates inverted and incubated at 30° for 4-5 days. • 7) The plates were then observed for visible M. furfur growth. Particle Size Determination Method

Compound: Cc1ccc(S(=O)(=O)C(I)I)cc1 [diiodomethyl-p-tolylsulfone, Diiodomethyl-p-tolylsulfone]
- water solubility [1]: less than 5 ppm
- MIC ([2]; Dispersed in Water): 2.0 ppm
- MIC ([2]; Malassezia furfur, ATCC14521, Dissolved in DMSO, read-out: MIC): 2 µg/mL
- Retained Activity [2]: about 100%
- Retained Activity ([2]; listed as AMICAL 48): 100%
- Retained Activity ([2]; listed as Diiodomethyl-p-tolylsulfone): 100%
